The record followed here is patent US9091692B2, “Fluorescent dye” (SHINICHIRO ISOBE, priority 2011, dated 2015).

The nature of series [1]: Measurement of a fluorescence spectrum (absorption and fluorescent wavelength, fluorescence intensity). It counts as physicochemical. The conditions noted are these: for Absorption wavelength / Fluorescence wavelength / Stokes shift: dissolved in DMSO, concentration 10^-4 M; for Fluorescence intensity relative to Synthetic Example 22: fluorescence intensity of Synthetic Example 22 was 1.0. On the procedure: Measurement of a Fluorescence Spectrum
Each of the synthesized fluorescent dyes was dissolved in a solvent by using DMSO to prepare a solution having a concentration of 10^−4 M, so that the measurements of fluorescent wavelength and absorption wavelength were performed.

A short description of series [2]: Direct solubility of the fluorescent dye in water. Type of series: physicochemical. An excerpt: The fluorescent dyes obtained in Synthetic Examples 1 to 21 were each directly soluble in water. […] A stokes shift of 100 nm or more was obtained in all the synthesized fluorescent dyes. An absorption wavelength of 400 to 450 nm was obtained in the 4,7-diphenyl whereas an absorption wavelength of 500 nm or more and a fluorescence wavelength of 600 nm or more were obtained in the 4,7-thienyl. When the fluorescence intensity of Synthetic Example 22 was 1.0, a very high fluorescence intensity as much as 11.2 was obtained in Synthetic Example 1 and a very high fluorescence intensity as much as 6.0 was obtained in Synthetic Example 12.

Regarding `O=C(CCCCC[n+]1cccc(/C=C/c2nc(-c3ccccc3)c3nsnc3c2-c2ccccc2)c1)ON1C(=O)CCC1=O` [Synthetic Example 1], in series [1], the Absorption wavelength is 411 nm, the Fluorescence wavelength came out at 531 nm, the Stokes shift was found to be 120 nm and the “Fluorescence intensity relative to Synthetic Example 22” value is listed as 11.2.

On to “active ester of 4,7-di(methylthienyl)-1,2,5-oxadiazolopyridine-6-(3-pyridinium) [Synthetic Example 9]”, for which, in series [1], the Absorption wavelength was 539 nm, the Fluorescence wavelength was found to be 660 nm and the Stokes shift was determined as 121 nm.

Regarding `O=C(CCCCC[n+]1cccc(-c2nc(-c3ccccc3)c3nonc3c2-c2ccccc2)c1)ON1C(=O)CCC1=O` [Synthetic Example 12], in series [1], the Absorption wavelength is listed as 382 nm, the Fluorescence wavelength amounted to 513 nm, the Stokes shift is recorded as 131 nm and the “Fluorescence intensity relative to Synthetic Example 22” value is listed as 6.0.

As to “active ester of 4,7-di[(2-naphthyl)thienyl]-1,2,5-oxadiazolopyridine-6-(4-vinylpyridinium) [Synthetic Example 19]”, in series [1], the Absorption wavelength worked out at 533 nm, the Fluorescence wavelength was determined as 730 nm and the Stokes shift was 197 nm.

As to “active ester of 4,7-di[(2-biphenyl)thienyl]-1,2,5-oxadiazolopyridine-6-(4-vinylpyridinium) [Synthetic Example 21]”, in series [1], the Absorption wavelength was 404 nm, the Fluorescence wavelength is on record as 527 nm and the Stokes shift was 123 nm.

Take `Cc1csc(-c2c(-c3cc[n+](CCCCCC(=O)ON4C(=O)CCC4=O)cc3)nc(-c3ccc(C)s3)c3nonc23)c1` [Synthetic Example 11, active ester of 4,7-di(methylthienyl)-1,2,5-oxadiazolopyridine-6-(4-pyridinium)]: in series [1], the Absorption wavelength came out at 528 nm, the Fluorescence wavelength came to 648 nm and the Stokes shift was found to be 120 nm.

With “active ester of 4,7-di[(1-naphthyl)thienyl]-1,2,5-oxadiazolopyridine-6-(4-pyridinium) [Synthetic Example 15]”, in series [1], the Absorption wavelength was 532 nm, the Fluorescence wavelength is on record as 722 nm and the Stokes shift was 190 nm.

Regarding “active ester of 4,7-diphenyl-1,2,5-oxadiazolopyridine ethyl ester [Synthetic Example 22, reference compound]”, the “Fluorescence intensity relative to Synthetic Example 22” value in series [1] was 1.0. The “Direct solubility in water” value in series [2] is listed as “could not be directly dissolved in water”.

In the case of “active ester of 4,7-di[(2-bromo)thienyl]-1,2,5-oxadiazolopyridine-6-(4-vinylpyridinium) [Synthetic Example 17]”, in series [1], the Absorption wavelength was found to be 509 nm, the Fluorescence wavelength is 688 nm and the Stokes shift turned out to be 179 nm.

Turning to `O=C(CCCCC[n+]1ccc(-c2nc(-c3ccc(-c4ccc(-c5ccccc5)cc4)s3)c3nonc3c2-c2cc(-c3ccc(-c4ccccc4)cc3)cs2)cc1)ON1C(=O)CCC1=O.[Br-]` [Synthetic Example 20, active ester of 4,7-di[(2-biphenyl)thienyl]-1,2,5-oxadiazolopyridine-6-(4-pyridinium)], in series [1], the Absorption wavelength is reported as 529 nm, the Fluorescence wavelength stood at 715 nm and the Stokes shift is 186 nm.

As to `O=C(CCCCC[n+]1ccc(/C=C/c2nc(-c3ccc(-c4cccc5ccccc45)s3)c3nonc3c2-c2ccc(-c3cccc4ccccc34)s2)cc1)ON1C(=O)CCC1=O` [Synthetic Example 18, active ester of 4,7-di[(1-naphthyl)thienyl]-1,2,5-oxadiazolopyridine-6-(4-vinylpyridinium)], in series [1], the Absorption wavelength was determined as 535 nm, the Fluorescence wavelength worked out at 700 nm and the Stokes shift stood at 165 nm.

With “active ester of 4,7-di(bromothienyl)-1,2,5-oxadiazolopyridine-6-(4-pyridine) [Synthetic Example 13]”, in series [1], the Absorption wavelength is on record as 516 nm, the Fluorescence wavelength turned out to be 698 nm and the Stokes shift worked out at 182 nm.

As for “active ester of 4,7-di[(2-phenyl)thienyl]-1,2,5-oxadiazolopyridine-6-(4-pyridinium) [Synthetic Example 14]”, in series [1], the Absorption wavelength turned out to be 500 nm, the Fluorescence wavelength was determined as 710 nm and the Stokes shift amounted to 210 nm.

As for `Cc1csc(-c2c(-c3ccc[n+](CCC(=O)ON4C(=O)CCC4=O)c3)nc(-c3ccc(C)s3)c3nonc23)c1` [Synthetic Example 10], in series [1], the Absorption wavelength is recorded as 531 nm, the Fluorescence wavelength is recorded as 650 nm and the Stokes shift is listed as 119 nm.

As for `COc1ccc(-c2nc(/C=C/c3ccc[n+](CCCCCC(=O)ON4C(=O)CCC4=O)c3)c(-c3ccc(OC)cc3)c3nonc23)cc1` [Synthetic Example 2], in series [1], the Absorption wavelength was 437 nm, the Fluorescence wavelength came to 608 nm and the Stokes shift stood at 171 nm.

As to `O=C(CCCCC[n+]1ccc(-c2nc(-c3ccc(-c4ccc5ccccc5c4)s3)c3nonc3c2-c2cc(-c3ccc4ccccc4c3)cs2)cc1)ON1C(=O)CCC1=O` [Synthetic Example 16, active ester of 4,7-di[(2-naphthyl)thienyl]-1,2,5-oxadiazolopyridine-6-(4-pyridinium)], in series [1], the Absorption wavelength came to 516 nm, the Fluorescence wavelength was 682 nm and the Stokes shift amounted to 166 nm.
